Measurements as given in patent US20260041744A1, “Methods for Treating Pompe Disease” (Amicus Therapeutics, Inc., priority 2022, published 2026).
Values joined by “and” are separate entries in the source; they are usually repeats but may differ in a detail not shown here. Equal values may be shown once.

Key:
[1] = test system: adults with Pompe disease; experiment: Study ATB200-02 (20 mg/kg cipaglucosidase alfa IV + 260 mg miglustat): 6MWT (6MWD, % predicted 6MWD); format: in vivo, human;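 further: Open-label Phase I/II trial, ambulatory cohorts only, values are changes from baseline or counts relative to the baseline walk test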
Description: The change from baseline (CFBL) in 6MWD, % predicted sitting FVC, manual muscle test (MMT) and biomarkers—urine glucose tetrasaccharide (Hex4) and serum creatine kinase (CK)—were assessed at regular intervals.
The 4 cohorts in the study are as follows: • Cohort 1: ERT-experienced (2 to 6 years) ambulatory subjects (11 subjects) • Cohort 2: ERT-experienced (≥2 years) non-ambulatory subjects (6 subjects) • Cohort 3: ERT-naïve ambulatory subjects (6 subjects)· • Cohort 4: ERT-experienced (≥7 years) ambulatory subjects (6 subjects)
In Study ATB200-02, motor function was evaluated in all ambulatory subjects (ie, Cohorts 1, 3, and 4) (Table 23, FIGS. 46A-46D).

[2] = set-up: species or system human; conditions: in vivo
From the text: Concomitant medications and nondrug therapies were also be recorded. […] Safety Analyses. Safety data was summarized using counts and percentages for categorical data and descriptive statistics (mean, standard deviation, median, minimum, maximum) for continuous data.

[3] = test system: adult subjects with late-onset Pompe disease (LOPD); experiment: Study ATB200-03 (PROPEL): MMT lower extremity score; format: in vivo, human; conditions: for CHG to Week 52 in MMT lower extremity score, LS Mean: MMRM, actual time point of assessments; for MMT lower extremity score CHG, LS means (SE): Week 52, ANCOVA
Description: The test for the primary endpoint was conducted first at the 1-sided 0.025 significance level, and if significant, the ordered key secondary endpoints were similarly tested at the same significance level. The statistical significance of the key secondary endpoints was interpreted following a hierarchical testing order, each at the 1-sided alpha level of 0.025. […] Primary analyses of efficacy were performed using the mixed-effect model for repeated measures (MMRM) for 6MWD in Intent-to-treat Observed Population (ITT) that includes all available, observed data without any missing data imputation (ITT-OBS) and analysis of covariance (ANCOVA) for all other endpoints in the Intent-to-Treat-Last Observation Carried Forward (ITT-LOCF) Population. A nonparametric randomization based ANCOVA was specified as the first sensitivity analysis for 6MWD and FVC. […] For the purposes of data presentation in this document, 2-sided p-values are reported hereafter, except as otherwise noted.

CIMPR = CIMPR (Homo sapiens, UniProt P11717); experiment: CIMPR Overlay Assay (far-western blot); format: binding
Description: The CIMPR Overlay Assay is a variation on a far-western blot where proteins are separated on an SDS-PAGE, transferred to a nitrocellulose membrane, and incubated with purified CIMPR in the place of a primary antibody as in a conventional western blot. Binding of CIMPR to M6P-containing glycans on rhGAA proteins is then visualized by an anti-CIMPR antibody.

[4] = Ambulatory ERT-experienced, 12 months
[5] = Ambulatory ERT-experienced, 24 months
[6] = Ambulatory ERT-experienced, 36 months
[7] = Ambulatory ERT-experienced, 48 months
[8] = Ambulatory ERT-naïve, 12 months
[9] = Ambulatory ERT-naïve, 24 months
[10] = Ambulatory ERT-naïve, 36 months
[11] = Ambulatory ERT-naïve, 48 months
[12] = Cohort 1 + Cohort 3 + Cohort 4, Month 12
[13] = Cohort 1 + Cohort 3 + Cohort 4, Month 24
[14] = Cohort 1 + Cohort 3 + Cohort 4, Month 36
[15] = Cohort 1 + Cohort 3 + Cohort 4, Month 48
[16] = Baseline, ITT, ERT-naïve Population excluding Subject 4005-2511
[17] = Week 52-LOCF, ERT-experienced Population
[18] = Week 52-LOCF, ERT-naïve Population excluding Subject 4005-2511
[19] = Week 52-LOCF, ITT excluding Subject 4005-2511

CIMPR, sequence (P11717 41-2491, species assumed): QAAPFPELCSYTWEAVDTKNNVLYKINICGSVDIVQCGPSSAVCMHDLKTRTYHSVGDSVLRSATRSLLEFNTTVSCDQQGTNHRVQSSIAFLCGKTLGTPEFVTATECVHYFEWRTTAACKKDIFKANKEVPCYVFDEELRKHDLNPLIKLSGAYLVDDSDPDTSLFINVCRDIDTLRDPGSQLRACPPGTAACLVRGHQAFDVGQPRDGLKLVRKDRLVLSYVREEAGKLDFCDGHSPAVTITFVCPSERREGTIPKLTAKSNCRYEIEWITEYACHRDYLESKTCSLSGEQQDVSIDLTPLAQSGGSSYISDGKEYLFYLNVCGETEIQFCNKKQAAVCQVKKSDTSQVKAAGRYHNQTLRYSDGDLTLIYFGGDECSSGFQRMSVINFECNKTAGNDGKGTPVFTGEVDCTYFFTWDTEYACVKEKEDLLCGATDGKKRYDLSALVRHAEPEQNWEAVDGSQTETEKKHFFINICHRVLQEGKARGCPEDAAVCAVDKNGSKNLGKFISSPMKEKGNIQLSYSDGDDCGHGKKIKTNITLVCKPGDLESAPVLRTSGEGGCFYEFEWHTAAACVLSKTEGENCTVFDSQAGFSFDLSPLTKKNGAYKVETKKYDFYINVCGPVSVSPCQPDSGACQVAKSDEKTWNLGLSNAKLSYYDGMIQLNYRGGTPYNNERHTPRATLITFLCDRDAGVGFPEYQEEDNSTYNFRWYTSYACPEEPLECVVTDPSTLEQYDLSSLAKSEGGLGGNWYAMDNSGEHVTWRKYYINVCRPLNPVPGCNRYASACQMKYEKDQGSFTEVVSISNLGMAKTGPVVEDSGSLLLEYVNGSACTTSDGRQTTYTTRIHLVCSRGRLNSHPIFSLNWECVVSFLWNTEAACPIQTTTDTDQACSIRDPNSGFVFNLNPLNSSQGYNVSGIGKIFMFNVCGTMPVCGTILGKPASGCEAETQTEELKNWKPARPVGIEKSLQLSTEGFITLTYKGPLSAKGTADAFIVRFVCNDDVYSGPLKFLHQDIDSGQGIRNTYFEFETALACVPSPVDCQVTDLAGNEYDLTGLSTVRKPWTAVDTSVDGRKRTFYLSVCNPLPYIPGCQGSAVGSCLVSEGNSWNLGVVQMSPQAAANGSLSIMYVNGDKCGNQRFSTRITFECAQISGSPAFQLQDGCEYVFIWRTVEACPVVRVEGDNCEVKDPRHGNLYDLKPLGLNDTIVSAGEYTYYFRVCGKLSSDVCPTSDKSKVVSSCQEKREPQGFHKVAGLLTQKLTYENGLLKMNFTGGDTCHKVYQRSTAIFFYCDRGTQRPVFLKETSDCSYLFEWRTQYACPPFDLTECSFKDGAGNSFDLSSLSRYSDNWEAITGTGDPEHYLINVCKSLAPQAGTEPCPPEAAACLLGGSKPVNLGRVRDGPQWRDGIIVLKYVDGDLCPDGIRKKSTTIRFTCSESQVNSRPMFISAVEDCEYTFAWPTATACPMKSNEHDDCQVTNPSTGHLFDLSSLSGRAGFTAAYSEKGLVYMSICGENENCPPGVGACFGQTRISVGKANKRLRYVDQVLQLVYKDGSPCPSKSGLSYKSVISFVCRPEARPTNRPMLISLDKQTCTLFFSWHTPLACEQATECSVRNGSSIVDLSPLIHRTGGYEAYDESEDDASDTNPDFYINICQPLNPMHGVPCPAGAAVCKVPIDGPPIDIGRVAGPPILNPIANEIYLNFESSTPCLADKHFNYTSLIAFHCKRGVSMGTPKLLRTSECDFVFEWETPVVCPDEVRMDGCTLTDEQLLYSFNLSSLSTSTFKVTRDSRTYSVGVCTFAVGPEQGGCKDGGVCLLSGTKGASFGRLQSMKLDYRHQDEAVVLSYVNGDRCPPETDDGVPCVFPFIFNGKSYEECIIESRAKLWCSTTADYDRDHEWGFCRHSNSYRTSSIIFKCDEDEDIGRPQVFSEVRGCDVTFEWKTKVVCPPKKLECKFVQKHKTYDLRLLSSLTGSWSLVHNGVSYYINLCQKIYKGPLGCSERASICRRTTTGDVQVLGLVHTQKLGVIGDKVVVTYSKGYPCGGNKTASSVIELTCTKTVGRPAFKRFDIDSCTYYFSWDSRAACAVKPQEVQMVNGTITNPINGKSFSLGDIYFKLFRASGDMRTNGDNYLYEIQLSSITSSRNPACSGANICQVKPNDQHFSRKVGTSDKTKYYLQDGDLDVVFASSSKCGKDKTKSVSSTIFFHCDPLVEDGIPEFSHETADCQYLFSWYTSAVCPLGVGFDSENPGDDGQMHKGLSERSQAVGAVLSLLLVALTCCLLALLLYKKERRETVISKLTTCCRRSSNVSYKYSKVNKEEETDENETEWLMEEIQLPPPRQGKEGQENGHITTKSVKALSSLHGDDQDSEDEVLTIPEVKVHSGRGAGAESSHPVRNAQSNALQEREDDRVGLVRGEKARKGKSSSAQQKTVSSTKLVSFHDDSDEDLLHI

Q: Which results are given for “ATB200/miglustat: two-component therapy: cipaglucosidase alfa (ATB200) administered in conjunction with miglustat (AT2221), a stabilizer of cipaglucosidase alfa”?
A: motor function by 6MWT ([1]; 48 months, Cohorts 1, 3, 4): clinically meaningful improvements in motor function as measured by the 6MWT; 6MWD, CFBL mean [1, 4]: 33.5 meters; Percent predicted 6MWD, CFBL mean [1, 4]: 6.1; 6MWD, CFBL mean [1, 5]: 25.2 meters; Percent predicted 6MWD, CFBL mean [1, 5]: 5.4; 6MWD, CFBL mean [1, 6]: 9.8 meters; Percent predicted 6MWD, CFBL mean [1, 6]: 3.4; 6MWD, CFBL mean [1, 7]: 20.7 meters; Percent predicted 6MWD, CFBL mean [1, 7]: 5.9; 6MWD, CFBL mean [1, 8]: 57.0 meters; Percent predicted 6MWD, CFBL mean [1, 8]: 10.7; 6MWD, CFBL mean [1, 9]: 54.4 meters; Percent predicted 6MWD, CFBL mean [1, 9]: 11.0; 6MWD, CFBL mean [1, 10]: 43.5 meters; Percent predicted 6MWD, CFBL mean [1, 10]: 9.0; 6MWD, CFBL mean [1, 11]: 52.2 meters; Percent predicted 6MWD, CFBL mean [1, 11]: 11.7; 6MWD change from baseline, mean [1, 12]: 39.9 meters; 6MWD change from baseline, median [1, 12]: 27.4 meters; 6MWD change from baseline, mean [1, 13]: 34.4 meters; 6MWD change from baseline, median [1, 13]: 22.6 meters; 6MWD change from baseline, mean [1, 14]: 19.7 meters; 6MWD change from baseline, median [1, 14]: 24.2 meters; 6MWD change from baseline, mean [1, 15]: 30.4 meters; 6MWD change from baseline, median [1, 15]: 27.0 meters; 6MWD change from baseline, mean ([1]; Cohort 1 + Cohort 4 (ERT-experienced), Month 12, listed as cipaglucosidase alfa/miglustat): 33 meters and 33.5 meters; 6MWD change from baseline, mean ([1]; Cohort 1 + Cohort 4 (ERT-experienced), Month 24, listed as cipaglucosidase alfa/miglustat): 25 meters and 25.2 meters; 6MWD change from baseline, mean ([1]; Cohort 1 + Cohort 4 (ERT-experienced), Month 36, listed as cipaglucosidase alfa/miglustat): 9.8 meters; 6MWD change from baseline, mean ([1]; Cohort 1 + Cohort 4 (ERT-experienced), Month 48, listed as cipaglucosidase alfa/miglustat): 20 meters and 20.7 meters; 6MWD change from baseline, median ([1]; Cohort 1 + Cohort 4, Month 12): 20.6 meters; 6MWD change from baseline, median ([1]; Cohort 1 + Cohort 4, Month 24): 18.5 meters; 6MWD change from baseline, median ([1]; Cohort 1 + Cohort 4, Month 36): 11.6 meters; 6MWD change from baseline, median ([1]; Cohort 1 + Cohort 4, Month 48): 27.0 meters; 6MWD change from baseline, mean ([1]; Cohort 3 (ERT-naïve), Month 12, listed as cipaglucosidase alfa/miglustat): 57 meters and 57.0 meters; 6MWD change from baseline, mean ([1]; Cohort 3 (ERT-naïve), Month 24, listed as cipaglucosidase alfa/miglustat): 54 meters and 54.4 meters; 6MWD change from baseline, mean ([1]; Cohort 3 (ERT-naïve), Month 36, listed as cipaglucosidase alfa/miglustat): 43 meters and 43.5 meters; 6MWD change from baseline, mean ([1]; Cohort 3 (ERT-naïve), Month 48, listed as cipaglucosidase alfa/miglustat): 52 meters and 52.2 meters; 6MWD change from baseline, median ([1]; Cohort 3, Month 12): 55.6 meters; 6MWD change from baseline, median ([1]; Cohort 3, Month 24): 49.0 meters; 6MWD change from baseline, median ([1]; Cohort 3, Month 36): 59.0 meters; 6MWD change from baseline, median ([1]; Cohort 3, Month 48): 40.5 meters; patients whose 6MWD improved numerically from baseline (n/N) ([1]; ERT-experienced, 12 months): 13/16; patients whose 6MWD improved numerically from baseline (n/N) ([1]; ERT-experienced, 24 months): 9/13; patients whose 6MWD improved numerically from baseline (n/N) ([1]; ERT-experienced, 36 months): 6/12; patients whose 6MWD improved numerically from baseline (n/N) ([1]; ERT-experienced, 48 months): 6/9; patients with improvement from baseline in mean % predicted 6MWD ([1]; ERT-experienced, Month 48): 88.9%; patients whose 6MWD improved numerically from baseline (n/N) ([1]; ERT-naïve, 12 months): 6/6; patients whose 6MWD improved numerically from baseline (n/N) ([1]; ERT-naïve, 24 months): 6/6; patients whose 6MWD improved numerically from baseline (n/N) ([1]; ERT-naïve, 36 months): 4/5; patients whose 6MWD improved numerically from baseline (n/N) ([1]; ERT-naïve, 48 months): 4/4; patients with improvement from baseline in mean % predicted 6MWD ([1]; ERT-naïve, Month 48): 100%

Q: With alglucosidase alfa [reference compound] as the substance, how does the “participants with infusion (injection) associated reactions (IARs)” value [2] read?
A: Its value is 26%.

Q: What about the “patients who discontinued treatment due to an adverse event” value [2] of the same substance?
A: Its value is 2.6%.

Q: What about the “MMT Lower Extremity Score Absolute Value, Mean” value [3, 16] of the same substance?
A: The value was 33.57.

Q: And the “MMT lower extremity score Absolute Value, Median” value [3, 16]?
A: Its value is 32.00.

Q: And the “mean (SD) change in MMT lower extremity score from baseline to Week 52” value ([3]; ERT-experienced Population)?
A: The value was 0.9 (2.81).

Q: And the “mean (SD) change in MMT lower extremity score from baseline to Week 52” value ([3]; ERT-naïve excluding Subject 4005-2511)?
A: Its value is 1.0 (1.53).

Q: What about the “Change in MMT lower extremity score baseline to Week 52, LS means (SE) from ANCOVA” value ([3]; ITT-LOCF, ERT-naïve Population excluding Subject 4005-2511) of the same substance?
A: Its value is 0.69 (1.013).

Q: And the “CHG to Week 52 in MMT lower extremity score, LS Mean” value ([3]; ITT-OBS excluding Subject 4005-2511 (overall))?
A: The value was 0.7.

Q: What about the “CHG to Week 52 in MMT lower extremity score, LS Mean” value ([3]; ITT-OBS excluding Subject 4005-2511, ERT-naïve Subjects) of the same substance?
A: Its value is −0.0.

Q: What about the “CHG to Week 52 in MMT lower extremity score, LS Mean” value ([3]; ITT-OBS, ERT-experienced Subjects) of the same substance?
A: The value was 0.9.

Q: And the “MMT lower extremity score Absolute Value, Mean (SD)” value [3, 17]?
A: The value was 26.96 (6.802).

Q: And the “MMT lower extremity score Absolute Value, Median” value [3, 17]?
A: Its value is 28.00.

Q: And the “MMT lower extremity score CHG, Mean (SD)” value [3, 17]?
A: Its value is 0.85 (2.811).

Q: And the “MMT lower extremity score CHG, Median” value [3, 17]?
A: The value was 1.00.

Q: And the “MMT Lower Extremity Score Absolute Value, Mean” value [3, 18]?
A: Its value is 34.57.

Q: What about the “MMT Lower Extremity Score CHG (change from baseline), Mean” value [3, 18] of the same substance?
A: The value was 1.00.

Q: What about the “MMT Lower Extremity Score CHG (change from baseline), Median” value [3, 18] of the same substance?
A: Its value is 2.00.

Q: And the “MMT lower extremity score Absolute Value, Median” value [3, 18]?
A: The value was 34.00.

Q: And the “MMT lower extremity score Absolute Value, Mean (SD)” value [3, 19]?
A: Its value is 28.53 (6.999).

Q: What about the “MMT lower extremity score Absolute Value, Median” value [3, 19] of the same substance?
A: The value was 29.00.

Q: What about the “MMT lower extremity score CHG, Mean (SD)” value [3, 19] of the same substance?
A: Its value is 0.88 (2.579).

Q: And the “MMT lower extremity score CHG, Median” value [3, 19]?
A: The value was 1.00.

Q: And the “MMT lower extremity score CHG, LS means (SE)” value ([3]; ITT-LOCF excluding Subject 4005-2511)?
A: Its value is 0.68 (0.603).

Q: And the “MMT lower extremity score CHG, LS means (SE)” value ([3]; ITT-LOCF, ERT-experienced Population)?
A: The value was 0.90 (0.735).

Q: And the “mean (SD) change in MMT lower extremity score from baseline to Week 52” value ([3]; overall population)?
A: Its value is 0.9 (2.58).

Q: What about the “CIMPR binding in overlay assay” value (CIMPR) of the same substance?
A: Its value is “a band with a much lower intensity”.
